This is an account of results in patent EP0073505B1, “Benzo-heterocycles” (priority 1981, dated 1983).

This assay relates to Meerschweinchen. The assay can be described thus: Heart rate increase in the guinea pig, i.v. Conditions: selectivity Broncholyse vs. Herzfrequenzsteigerung. In kind it is in vivo. An excerpt:
Für die pharmakologischen Prüfungen werden die üblichen Testmethoden und Versuchstiere oder Organe verwendet. Pharmakologisch sind die erfindungsgemässen Verbindungen gegenüber Handelsprodukten der gleichen Indikation zum Teil sehr deutlich unterschieden. Neben einer guten Wirkungsdauer zeigt sich z.B. eine besonders deutliche Selektivität im Verhältnis Broncholyse zu Herzfrequenzsteigerung. So ist z. […] Günstig sind im allgemeinen auch die Resorptionsverhältnisse. So ist der Resorptionsquotient [formula] z.B. für die Verbindung 7 der Tabelle 3 nur 1,1, so dass die orale Wirkung praktisch ebenso gross ist wie die intravenöse. Die LD50-Werte liegen, z.B. an der Maus, so weit über der therapeutischen Dosis, dass eine günstige therapeutische Breite gegeben ist.

`CC[C@H](NC(C)C)[C@H](O)c1ccc(O)c2c1OCC(=O)N2` (relative stereo) [Beispiel 1]: the “ED50 i.v. der Herzfrequenzsteigerung relative to ED50 i.v. der Broncholyse” value is given as “mehr als zehnmal so gross”.
